Compound	melting point [°C]
Nc1ncnc2c1ncn2[C@H]1C=C[C@@H](CO)O1	189 to 191
CCOC(=O)c1c(C)n(OC)c2ccc3nonc3c12	147 to 149
CC(C)(C)C(=O)OCOC(=O)C1N2C(=O)C(N=CN3CCCCCC3)C2SC1(C)C (stereo not given)	119
CC(C)(C)OC(=O)N1CCC(C(=O)c2ccc(F)cc2)CC1	89 to 91
CC=CC(=O)OC1CC2OC3C=C(C)C(=O)CC3(C)C1(C)C21CO1 (stereo not given)	118
O[Si](O)(c1ccccc1)c1ccccc1	202
CSc1sc(C#N)c2c1C(=O)CC(C)(C)C2	169 to 171
CC12CCC(C(=O)C(Br)(Br)C1=O)C2(C)C (stereo not given)	155
Nc1cnccc1C(F)(F)F	55 to 56
NC(=S)c1ccc(Cl)cc1	127 to 130
CCOC(C)OCC	-100
CC(=O)NC(=O)COC(=O)c1ccccc1	104
CC(=O)NCC(=O)O	207 to 209
O=Cc1ccncc1	-4
CCO[Si](CCCNC(=O)c1ccc([N+](=O)[O-])cc1)(OCC)OCC	55
Nc1ccc(Cn2cncn2)cc1	124 to 126
CCCC(C)C(=O)Nc1ccc(C)c(Cl)c1 (stereo not given)	85.5
O=C(O)C(Cc1ccccc1)Cc1ccccc1	90
FCOC(C(F)(F)F)C(F)(F)F	< 25
CSC	-83
CCOC1Oc2ccc(OS(C)(=O)=O)cc2C1(C)C (stereo not given)	71
Cc1cc(N=Nc2ccccc2C)ccc1N	101 to 102
CCOC(=O)c1c(C)nc2sc3c(c2c1N)CCCC3	135 to 136

Compound	melting point [°C]
COc1ccc(C(=O)/C=C(\C)c2ccc(OC)cc2)cc1	86 to 87
COC(=O)c1csc(C=O)c1	115
COc1ccc(S(=O)(=O)c2coc(S(N)(=O)=O)c2)cc1	118
COC1(C=O)C=CC2=C(C1)OCO2 (stereo not given)	129
Cc1cc(C)c(N=C=O)c(C)c1	44.5
O=C1OC(=O)c2c(Br)c(Br)c(Br)c(Br)c21	275
CCCC(O)C=CC=CC=CC#CC#CCCCO (stereo not given)	54
S=c1sccs1	49
Clc1ccc2scc(CBr)c2c1	129 to 130
CC1=CCC/C1=N\Nc1ccc([N+](=O)[O-])cc1[N+](=O)[O-]	222
NC(=O)NN=C(c1cc2ccccc2o1)c1cc2ccccc2o1	189 to 190
C=C1[C@@H](c2ccccc2)[C@]2(Cl)C(=O)N(C)C(=O)[C@]12Cl	134
C#CCCCCCCCCCCCCCCC	22
O=C(/C=C/c1ccccc1)NNc1ccccc1	187
Cn1ccnc1	-6
CCCCCNCCCCC	-7.85
NNC(=S)Nc1cccc(F)c1	164 to 166
Cc1nc(/C(C#N)=N/Nc2cccc(C(F)(F)F)c2)sc1/N=N/c1ccc(F)cc1	211
CC1CN(C2CCCCCCCCCCC2)CC(C)O1 (stereo not given)	71
COc1ccc(C(C#N)C(C)=O)c(Cl)c1 (stereo not given)	79
OC1C2CCC1C1C=CC2O1 (stereo not given)	121 to 123
CC1CCOS(=O)O1 (stereo not given)	5
NC1=NN(c2ccccc2)C(=O)C1	210 to 215

Compound	melting point [°C]
COc1ccc(O)c(F)c1F	105
Cc1nc(-c2ccc(C=O)cc2)no1	115
CC(=O)Oc1ccc(OC(C)=O)c(C(C)(C)C)c1	64.5 to 65.5
CC(=O)C1CCc2ccccc2C1=O (stereo not given)	56
N#Cc1c(-c2ccc(Br)cc2)cc2c(C#N)c(=N)n(C(=O)c3ccc(Cl)cc3)n2c1N	190
COc1ccc(S(N)(=O)=O)cc1F	126
O=C(c1ccccc1)c1ccc(N2CCOCC2)cc1	142 to 145
CCCSP(=S)(OCC)Oc1ccc(SC)cc1 (stereo not given)	-15
Cn1nnc2cc(C(=O)Cl)ccc21	125 to 126
CC(=O)c1ccccc1C(C)=O	40
Cc1cccc2c1CC(C(=O)O)NC2 (racemic)	316 to 318
CCN(CC)c1ccc(N)cc1	27
CC1(C)CC(=O)c2cc(-c3ccccc3)n(-c3ccc(Cl)c(Cl)c3)c2C1	167 to 169
Cc1ccccc1/C=C(\C#N)c1nc2ccccc2[nH]1	210 to 211
O=C1/C(=N/Nc2ccc(Cl)cc2)C(C(F)(F)F)=NN1c1ccccc1	180
C#CCC1(CC#C)C(=O)OC(C)(C)OC1=O	135 to 137
Cc1ccc(C2(O)CCN(CCCC(=O)c3ccc(F)cc3)CC2)cc1	118
O=C1C(=C2C=Cc3cc(-c4ccccc4)ccc3N2)C(=O)c2ccccc21	270 to 271
COc1ccc(CC(=O)O)cc1OCc1ccccc1	126
Nc1nc2ccccc2n1Cc1ccccc1	200 to 204
FC(F)(Cl)C(F)(Cl)C(F)(F)Cl	-72
O=C1c2ccccc2C(=O)N1CCOCCCl	72 to 73
O=C(O)CCCCc1cccs1	41

Compound	melting point [°C]
CCCC(CCC)C(N)=O	125
O=C(OCc1ccccc1)C(=O)OCc1ccccc1	80 to 82
O=S(=O)(Cl)c1ccc(-c2cnco2)s1	80 to 82
Cc1n[nH]c2c(=O)n(-c3ccc(Cl)cc3)c(C)nc12	313 to 315
CCCCc1ccc(C(=O)O)cc1	106
Cc1nc(-c2ccc(Cl)cc2)sc1C(=O)Cl	180 to 183
O=C1NC2CCCCC12 (stereo not given)	48 to 50
CCOC(=O)Nc1ccc2nn(C3CCCC3)nc2c1	122
COc1ccccc1C(=S)N1CCCCC1	85
O=C(O)COc1ccc(Br)cc1	156 to 161
O=C(CC(=O)C(F)(F)F)c1ccc2ccccc2c1	74
O=[N+]([O-])c1cccc2c(/C=N\c3ccccc3)cccc12	83 to 84
CC(=O)CC(C)(C)O	-42.8
N#CC12CCN(CC1)CC2	133
Cc1cncc(Oc2cccc(N)c2)n1	59.5 to 61
O=CC=O	15
COc1ccc2ccccc2c1C	126
CCc1cc2ccccc2ccc1=O	49
FC(F)(F)c1nn(CN2CCCCC2)c(=S)n1N=Cc1ccc2c(c1)OCO2	122
CC(C)[C@@H](O)[C@H](N)C(=O)O	225 to 227
Nc1ccc(-c2ccc(N)cc2)cc1	124
Nc1c2c(nc3ccccc13)CCCC2	184
CCCN(CCC)C(=O)C(CCC(=O)O)NC(=O)c1ccccc1 (stereo not given)	142

Compound	melting point [°C]
CC(C)(C)OC(=O)Nc1cc(O)cc(C(=O)O)c1	150 to 151
CC(=O)Nc1ccc(F)cc1F	122
Cc1sc2c(c1C)C(=O)CS(=O)(=O)N2C	122 to 124
CCCCCCCCCCCCCCCCCCCCCCC(=O)O	79 to 80
CCc1cccc(C)c1N(COC(C)C)C(=O)CCl	21.6
Cc1cc(C(C)(C)c2ccc(O)c(C)c2)ccc1O	139
OC1CCN(Cc2ccccc2)CC1	62
Cc1cc(OC(=O)N(C)C)n(-c2ccccc2)n1	50
O=C(CBr)c1cc(-c2ccc(Cl)c(Cl)c2)no1	114 to 118
O=C1c2ccccc2S(=O)(=O)N1Cl	148 to 151
NNC(=O)C(O)c1ccccc1 (stereo not given)	130
Cn1c(CO)cc2occc21	74 to 76
CCN(CC)c1nc(Cl)nc(N(CC)CC)n1	27
COC1=C(OC)C(C(O)COS(=O)(=O)c2ccc(C)cc2)OC1=O (stereo not given)	88 to 90
O=C(Oc1ccccc1)c1ccc2ccccc2c1O	93 to 97
CCCCCC(O)CC (racemic)	-16
O=C(O)CCS	18
COC(=O)c1ccccc1S(=O)(=O)NC(=O)Nc1nc(C)cc(C)n1	204
O=C=Nc1ccc(Cl)cc1	30
O=C1OCc2cc(Br)ccc21	162 to 166
Cc1c(S(=O)(=O)c2ccc(Cl)cc2)csc1C(=O)O	252 to 256
CC(C)(C)OC(=O)n1cc(CBr)c2ccccc21	106
C[C@@]1(CO)N[C@H](C(=O)O)CC2c3ccccc3NC21 (stereo not given in full)	258 to 262

Compound	melting point [°C]
C=CCC1(c2ccccc2)C(=O)NC(=O)NC1=O	156
C#CCOc1ccc(Cc2ccc(O)cc2)cc1	60
COC(=O)CCC(C)C1CCC2C3CCC4CCCCC4(C)C3CC(=O)C12C (stereo not given)	109
COc1ccc(-c2onc(C(=O)c3cccs3)c2S(=O)(=O)c2ccccc2)cc1	120
CON=C(C(=O)O)c1csc(N)n1	176 to 182
CCCC(O)CC(C)C (stereo not given)	-81
Oc1ccc(C2COc3cc(O)ccc3C2)cc1 (stereo not given)	190
CC(=O)C(=O)Nc1ccc(Br)cc1	166
COC(=O)C(C)O (stereo not given)	-66
CCCCCCCCCCCCCCc1ccccc1	16
NC(=S)c1ccc(Oc2ccc(C(F)(F)F)cn2)cc1	175 to 178
Clc1cc2nsnc2cc1CBr	75 to 77
NCCCS(=O)(=O)O	270
CCCCCCCCCCCCCC(C)C	-7
CNc1nc(NC(C)C)nc(SC)n1	85
O=Cc1ccc(-c2ccccc2Cl)o1	75 to 78
CCOC(=O)c1cc(-c2ccc(Cl)cc2)oc1C=O	188
NS(=O)(=O)c1cc2c(cc1Cl)NC(CSCC(F)(F)F)NS2(=O)=O (stereo not given)	206
N#Cc1cc(Br)ccc1N	93 to 98
O=C(Nc1ccc([N+](=O)[O-])cc1[N+](=O)[O-])C(C(F)(F)F)C(F)(F)F	120 to 122

From a melting point compilation (Tetko et al.)
